Experimental data published in patent US20220411380A1, “ACID ADDITION SALT OF RORy REGULATOR” (JIANGSU HENGRUI MEDICINE CO., LTD., priority 2019, published 2022).

Legend:
Type in all cases: physicochemical
[1] = DVS (dynamic vapor sorption) characterization
Description: DVS refers to dynamic vapor sorption: The measurement was conducted with a Surface Measurement Systems advantage 2 at 25° C., starting from 50% humidity in humidity range of 0%-95% with a step size of 10%. The judging criterion was that the mass change of each gradient dM/dT is less than 0.002 and TMAX is less than 360 min in two circles.

[2] = Influencing factor study of crystalline form α of hydrochloride and crystalline form I of hydrobromide
Description: Sample of the crystalline form α of the hydrochloride and the crystalline form I of the hydrobromide of the compound of formula II were let stand open to examine the stability of the samples in conditions of illumination (4500 Lux), high temperature (40° C. and 60° C.) and high humidity (RH 75% and RH 92.5%) in a period of 30 days.

[3] = Long-term/accelerated stability study of crystalline form α of hydrochloride and crystalline form I of hydrobromide
Description: The crystalline form α of the hydrochloride of the compound of formula II was let stand in conditions of 25° C./60% RH and 40° C./75% RH to examine its stability.
The crystalline form I of the hydrobromide of the compound of formula II was let stand in conditions of 25° C./60% RH and 40° C./75% RH to examine its stability.

- DVS weight change ([1]; 25° C., 20.0% RH to 80.0% RH): 0.549%
- Hygroscopicity ([1]; DVS, 25° C., 20.0% RH to 80.0% RH): slightly hygroscopic
- Vapor sorption ([1]; accelerated test condition, 70% humidity): about 0.574%
- Vapor sorption ([1]; extreme condition, 90% humidity): about 1.040%
- Vapor sorption ([1]; normal storage condition, 60% humidity/25° C.): about 0.463%
- Chiral purity (%) ([2]; 40° C., 7 days): 99.131%
- Color and appearance ([2]; 40° C., 7 days): White solid
- Crystalline form ([2]; 40° C., 7 days): Not changed
- Main peak purity (%) ([2]; 40° C., 7 days): 96.915%
- Chiral purity (%) ([2]; 40° C., 14 days): 99.115%
- Color and appearance ([2]; 40° C., 14 days): White solid
- Crystalline form ([2]; 40° C., 14 days): Not changed
- Main peak purity (%) ([2]; 40° C., 14 days): 96.921%
- Chiral purity (%) ([2]; 40° C., 30 days): 99.207%
- Chloride ion content (%) ([2]; 40° C., 30 days): 5.75%
- Color and appearance ([2]; 40° C., 30 days): White solid
- Crystalline form ([2]; 40° C., 30 days): Not changed
- Main peak purity (%) ([2]; 40° C., 30 days): 96.824%
- Chiral purity (%) ([2]; 60° C., 7 days): 99.136%
- Color and appearance ([2]; 60° C., 7 days): White solid
- Crystalline form ([2]; 60° C., 7 days): Not changed
- Main peak purity (%) ([2]; 60° C., 7 days): 96.884%
- Chiral purity (%) ([2]; 60° C., 14 days): 99.106%
- Color and appearance ([2]; 60° C., 14 days): White solid
- Crystalline form ([2]; 60° C., 14 days): Not changed
- Main peak purity (%) ([2]; 60° C., 14 days): 96.907%
- Chiral purity (%) ([2]; 60° C., 30 days): 99.232%
- Chloride ion content (%) ([2]; 60° C., 30 days): 5.65%
- Color and appearance ([2]; 60° C., 30 days): White solid
- Crystalline form ([2]; 60° C., 30 days): Not changed
- Main peak purity (%) ([2]; 60° C., 30 days): 96.814%
- Chiral purity (%) ([2]; 75% RH, 7 days): 99.138%
- Color and appearance ([2]; 75% RH, 7 days): White solid
- Crystalline form ([2]; 75% RH, 7 days): Not changed
- Main peak purity (%) ([2]; 75% RH, 7 days): 96.916%
- Chiral purity (%) ([2]; 75% RH, 14 days): 99.130%
- Color and appearance ([2]; 75% RH, 14 days): White solid
- Crystalline form ([2]; 75% RH, 14 days): Not changed
- Main peak purity (%) ([2]; 75% RH, 14 days): 96.908%
- Chiral purity (%) ([2]; 75% RH, 30 days): 99.220%
- Chloride ion content (%) ([2]; 75% RH, 30 days): 5.68%
- Color and appearance ([2]; 75% RH, 30 days): White solid
- Crystalline form ([2]; 75% RH, 30 days): Not changed
- Main peak purity (%) ([2]; 75% RH, 30 days): 96.903%
- Chiral purity (%) ([2]; 92.5% RH, 7 days): 99.132%
- Color and appearance ([2]; 92.5% RH, 7 days): White solid
- Crystalline form ([2]; 92.5% RH, 7 days): Not changed
- Main peak purity (%) ([2]; 92.5% RH, 7 days): 96.912%
- Chiral purity (%) ([2]; 92.5% RH, 14 days): 99.111%
- Color and appearance ([2]; 92.5% RH, 14 days): White solid
- Crystalline form ([2]; 92.5% RH, 14 days): Not changed
- Main peak purity (%) ([2]; 92.5% RH, 14 days): 96.908%
- Chiral purity (%) ([2]; 92.5% RH, 30 days): 99.211%
- Chloride ion content (%) ([2]; 92.5% RH, 30 days): 5.67%
- Color and appearance ([2]; 92.5% RH, 30 days): White solid
- Crystalline form ([2]; 92.5% RH, 30 days): Not changed
- Main peak purity (%) ([2]; 92.5% RH, 30 days): 96.880%
- Chiral purity (%) ([2]; 4500 Lux, 7 days): 99.137%
- Color and appearance ([2]; 4500 Lux, 7 days): White solid
- Crystalline form ([2]; 4500 Lux, 7 days): Not changed
- Main peak purity (%) ([2]; 4500 Lux, 7 days): 96.911%
- Chiral purity (%) ([2]; 4500 Lux, 14 days): 99.139%
- Color and appearance ([2]; 4500 Lux, 14 days): White solid
- Crystalline form ([2]; 4500 Lux, 14 days): Not changed
- Main peak purity (%) ([2]; 4500 Lux, 14 days): 96.911%
- Chiral purity (%) ([2]; 4500 Lux, 30 days): 99.216%
- Chloride ion content (%) ([2]; 4500 Lux, 30 days): 5.71%
- Color and appearance ([2]; 4500 Lux, 30 days): White solid
- Crystalline form ([2]; 4500 Lux, 30 days): Not changed
- Main peak purity (%) ([2]; 4500 Lux, 30 days): 96.810%
- Chiral purity (%) ([2]; Initial, 0 days): 99.14%
- Chloride ion content (%) ([2]; Initial, 0 days): 5.75%
- Color and appearance ([2]; Initial, 0 days): White solid
- Crystalline form ([2]; Initial, 0 days): Crystalline
- Main peak purity (%) ([2]; Initial, 0 days): 96.925%
- Stability (conclusion of influencing factor study) ([2]; illumination, 40° C. and 60° C., high humidities of 75% and 92.5%): good physical and chemical stabilities
- Chiral purity (%) ([3]; 25° C., 60% RH, Day 7): 99.131%
- Color and appearance ([3]; 25° C., 60% RH, Day 7): White solid
- Crystalline form ([3]; 25° C., 60% RH, Day 7): Not changed
- Main peak purity (%) ([3]; 25° C., 60% RH, Day 7): 96.915%
- Chiral purity (%) ([3]; 25° C., 60% RH, Day 14): 99.111%
- Color and appearance ([3]; 25° C., 60% RH, Day 14): White solid
- Crystalline form ([3]; 25° C., 60% RH, Day 14): Not changed
- Main peak purity (%) ([3]; 25° C., 60% RH, Day 14): 96.831%
- Chiral purity (%) ([3]; 25° C., 60% RH, Month 1): 99.225%
- Chloride ion content (%) ([3]; 25° C., 60% RH, Month 1): 5.75%
- Color and appearance ([3]; 25° C., 60% RH, Month 1): White solid
- Crystalline form ([3]; 25° C., 60% RH, Month 1): Not changed
- Main peak purity (%) ([3]; 25° C., 60% RH, Month 1): 96.906%
- Chiral purity (%) ([3]; 25° C., 60% RH, Month 2): 99.332%
- Chloride ion content (%) ([3]; 25° C., 60% RH, Month 2): 5.74%
- Color and appearance ([3]; 25° C., 60% RH, Month 2): White solid
- Crystalline form ([3]; 25° C., 60% RH, Month 2): Not changed
- Main peak purity (%) ([3]; 25° C., 60% RH, Month 2): 96.883%
- Chiral purity (%) ([3]; 25° C., 60% RH, Month 3): 99.239%
- Color and appearance ([3]; 25° C., 60% RH, Month 3): White solid
- Crystalline form ([3]; 25° C., 60% RH, Month 3): Not changed
- Main peak purity (%) ([3]; 25° C., 60% RH, Month 3): 96.749%
- Chiral purity (%) ([3]; 25° C., 60% RH, Month 6): 99.187%
- Chloride ion content (%) ([3]; 25° C., 60% RH, Month 6): 5.85%
- Color and appearance ([3]; 25° C., 60% RH, Month 6): White solid
- Crystalline form ([3]; 25° C., 60% RH, Month 6): Not changed
- Main peak purity (%) ([3]; 25° C., 60% RH, Month 6): 96.170%
- Chiral purity (%) ([3]; 40° C., 75% RH, Day 7): 99.137%
- Color and appearance ([3]; 40° C., 75% RH, Day 7): White solid
- Crystalline form ([3]; 40° C., 75% RH, Day 7): Not changed
- Main peak purity (%) ([3]; 40° C., 75% RH, Day 7): 96.906%
- Chiral purity (%) ([3]; 40° C., 75% RH, Day 14): 99.104%
- Color and appearance ([3]; 40° C., 75% RH, Day 14): White solid
- Crystalline form ([3]; 40° C., 75% RH, Day 14): Not changed
- Main peak purity (%) ([3]; 40° C., 75% RH, Day 14): 96.902%
- Chiral purity (%) ([3]; 40° C., 75% RH, Month 1): 99.206%
- Chloride ion content (%) ([3]; 40° C., 75% RH, Month 1): 5.44%
- Color and appearance ([3]; 40° C., 75% RH, Month 1): White solid
- Crystalline form ([3]; 40° C., 75% RH, Month 1): Not changed
- Main peak purity (%) ([3]; 40° C., 75% RH, Month 1): 96.846%
- Chiral purity (%) ([3]; 40° C., 75% RH, Month 2): 99.292%
- Chloride ion content (%) ([3]; 40° C., 75% RH, Month 2): 5.86%
- Color and appearance ([3]; 40° C., 75% RH, Month 2): White solid
- Crystalline form ([3]; 40° C., 75% RH, Month 2): Not changed
- Main peak purity (%) ([3]; 40° C., 75% RH, Month 2): 96.780%
- Chiral purity (%) ([3]; 40° C., 75% RH, Month 3): 99.149%
- Color and appearance ([3]; 40° C., 75% RH, Month 3): White solid
- Crystalline form ([3]; 40° C., 75% RH, Month 3): Not changed
- Main peak purity (%) ([3]; 40° C., 75% RH, Month 3): 96.664%
- Chiral purity (%) ([3]; 40° C., 75% RH, Month 6): 98.972%
- Chloride ion content (%) ([3]; 40° C., 75% RH, Month 6): 5.98%
- Color and appearance ([3]; 40° C., 75% RH, Month 6): White solid
- Crystalline form ([3]; 40° C., 75% RH, Month 6): Not changed
- Main peak purity (%) ([3]; 40° C., 75% RH, Month 6): 95.990%
- Chiral purity (%) ([3]; Initial, 0): 99.14%
- Chloride ion content (%) ([3]; Initial, 0): 5.75%
- Color and appearance ([3]; Initial, 0): White solid
- Crystalline form ([3]; Initial, 0): Crystalline
- Main peak purity (%) ([3]; Initial, 0): 96.925%
- Stability (conclusion of long-term/accelerated study) ([3]; long term and acceleration, 6 months): good physical and chemical stability
SMILES: Cl.NC(=O)C[C@H](c1ccc(S(=O)(=O)CC2CC2)cc1)c1nc2cc(-c3ccccc3OC(F)F)c(Cl)cc2[nH]1 [Crystalline form α of hydrochloride of compound of formula I]
- Crystalline form before and after DVS (XRPD comparison) ([1]; 0-95% humidity change): crystalline form did not change during DVS
